{"source": "patent US11491139B2", "about": "“Inhibition of YAP for breaking tumor immune tolerance” (The Johns Hopkins University, priority 2015, dated 2022)", "key": {"[1]": {"details": "statement with reference [17]; may limit bioavailability; cited from earlier work"}, "B16-melanoma cells": {"test_system": "B16-melanoma cells", "assay": "B16-melanoma growth experiments in mice (tumor volume)", "type": "in vivo", "details": "C57BL/6 mice challenged with B16-melanoma, Verteporfin 2 mg/mouse i.p. every two days, anti-PD-1 (G4) 100 μg/mouse i.p. twice a week, GVAX 1×10^6 irradiated cells s.c., FIG. 4", "protocol": "C57BL/6 mice were challenged with B16-melanoma cells and tumor progression was monitored as in FIG. 3. Cohorts of mice were injected treated with either VP, GVAX, anti-PD1 antibody, VP and anti-PD-1, or VP and GVAX beginning one day post-tumor injection. Control mice were left untreated (n=5/group). Shown are the mean tumor volumes for the groups +/−SD.\nB16-melanoma cells were cultured in vitro in DMEM plus 10% heat inactivated Fetal Bovine Serum and were detached by trypsinization and washed prior to s.c. injection into the footpads of C57BL/6 mice (NCI). 1-5×10^4 B16 melanoma cells were injected each mouse in the footpad. In some cases, 10^5 B16 cells were injected. Once tumors were palpable (7-10 days), […] of 1×10^6 lethally irradiated (150Gy) B16 GM-vaccine cells were injected subcutaneously into the contralateral limb. For all these experiments, 5-10 mice were used per group. A hybridoma cell line expressing a blocking anti-PD-1 antibody (clone G4) was obtained from Dr. Charles Drake (JHH). […] Tumor volume was determined by digital caliper measurements throughout the experiment. The relative tumor volume was calculated by the formula: Length (mm)×Width (mm)×Height (mm)×0.5326×0.01. […] Cytokines and Foxp3 were measured by intracellular flow cytometry."}}, "data": [{"substance": "Verteporfin", "values": [{"measurement": "solubility", "setting": "[1]", "value": "prone to solubility issues"}, {"measurement": "tumor growth / tumor size (tumor volume)", "setting": "B16-melanoma cells", "value": "modest reduction in tumor size"}, {"measurement": "tumor growth / tumor size (tumor volume)", "setting": "B16-melanoma cells; listed as VP", "value": "did not alter the course of tumor growth"}]}]}
